Like-named read-outs stand apart in the source and are kept apart here.
Target: human growth hormone secretagogue receptor (hGHS-R1a) (Homo sapiens, UniProt Q92847)
Assay: Competitive radioligand binding assay (ghrelin receptor), standard method A
Excerpt: A competitive binding assay at the human growth hormone secretagogue receptor (hGHS-R1a) can be carried out analogously to assays described in the literature. (Bednarek, M. A.; et al. J. Med. Chem. 2000, 43, 4370-4376; Palucki, B. L.; et al. Bioorg. Med. Chem. Lett. […], 11, 1955-1957.) See also U.S. patent application Ser. Nos. 11/149,512 and 11/149,731. Binding activity at the gherlin receptor for representative compounds of the present invention is shown in the Examples below.

[1] = binding activity at the human ghrelin receptor, standard method A

Chain of human growth hormone secretagogue receptor (hGHS-R1a) (Q92847 whole entry): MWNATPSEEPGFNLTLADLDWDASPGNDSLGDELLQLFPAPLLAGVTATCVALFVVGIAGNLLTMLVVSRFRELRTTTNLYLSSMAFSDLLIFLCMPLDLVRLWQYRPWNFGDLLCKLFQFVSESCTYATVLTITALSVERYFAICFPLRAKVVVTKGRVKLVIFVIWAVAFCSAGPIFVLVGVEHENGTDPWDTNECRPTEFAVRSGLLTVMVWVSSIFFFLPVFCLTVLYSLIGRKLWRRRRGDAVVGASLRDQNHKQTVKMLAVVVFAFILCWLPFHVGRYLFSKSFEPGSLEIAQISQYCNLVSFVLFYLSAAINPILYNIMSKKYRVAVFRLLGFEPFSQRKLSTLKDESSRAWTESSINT

Ki [1] [nM]	Ki [nM]	SMILES
≤ 500	–	CC(C)[C@@H]1CN[C@@H](C2CC2)C(=O)N(C)[C@H](C)C(=O)N[C@H](Cc2ccc(Cl)cc2)C(=O)NCCCc2ccc(F)cc2O1 [Compound 966]
> 500	–	CC(C)C[C@H]1NC(=O)[C@@H](C)N(C)C(=O)[C@H](C2CC2)NCCOc2cnccc2CCCNC1=O [Compound 1021]
≤ 100	–	CC(C)CC1NC(=O)C(C)N(C)C(=O)C(C2CC2)NCCOC2CCCCC2CCCNC1=O (stereo not drawn) [Compound 1106]
≤ 10	–	C[C@@H]1C(=O)N[C@H](Cc2ccc(Cl)cc2)C(=O)NCCCc2ccc(F)cc2OCCN[C@@H](C2CC2)C(=O)N1C [Compound 864]
≤ 100	–	C[C@@H]1CN[C@@H](C2CC2)C(=O)N(C)[C@H](C)C(=O)N[C@H](Cc2ccc(Cl)cc2)C(=O)NCCCc2cccc(F)c2O1 [Compound 936]
≤ 100	–	C[C@@H]1CN[C@@H](C2CC2)C(=O)N(C)[C@H](C)C(=O)N[C@H](Cc2ccccc2)C(=O)NCCCc2ccccc2O1 [Compound 851]
≤ 500	–	CC[C@H](C)[C@@H]1NC[C@@H](C)Oc2cc(F)ccc2CCCNC(=O)[C@@H](Cc2ccc(F)cc2)NC(=O)[C@@H](C)N(C)C1=O [Compound 856]
≤ 500	–	CC[C@H](C)[C@@H]1NCCOc2cccnc2CCCNC(=O)[C@@H](CC(C)C)NC(=O)[C@@H](C)N(C)C1=O [Compound 987]
≤ 10	–	CC1C(=O)NC(Cc2ccc(F)cc2)C(=O)NCCCc2c(F)cccc2OCCNC(C2CC2)C(=O)N1C (stereo not drawn) [Compound 1109]
≤ 100	–	C[C@@H]1CN[C@@H](C2CC2)C(=O)N(C)[C@H](C)C(=O)N[C@H](CC2CCCCC2)C(=O)NCCCc2ccccc2O1 [Compound 1045]
≤ 500	–	C[C@@H]1CN[C@@H](C2CC2)C(=O)N(C)[C@H](C)C(=O)N[C@H]([C@@H](C)c2ccc(O)cc2)C(=O)NCCCc2ncccc2O1 [Compound 1082]
≤ 100	–	C[C@@H]1C(=O)N[C@H](Cc2ccc(F)cc2)C(=O)NCCCc2ccccc2OC(C)(C)CN[C@@H](C2CC2)C(=O)N1C [Compound 1003]
≤ 10	–	CC[C@H](C)[C@@H]1NC[C@@H](C)Oc2cccnc2CCCNC(=O)[C@@H](Cc2ccc(F)cc2)NC(=O)[C@@H](C)N(C)C1=O [Compound 1029]
≤ 100	–	C[C@@H]1C(=O)N[C@H](Cc2cccs2)C(=O)NCCCc2ncccc2OCCN[C@@H](C2CC2)C(=O)N1C [Compound 995]
> 500	–	C[C@@H]1CN[C@@H](C2CC2)C(=O)N(C)[C@H](C)C(=O)N[C@H](C2CC2)C(=O)NCCCc2ccccc2O1 [Compound 1048]
≤ 500	–	C[C@@H]1CN[C@@H](C2CC2)C(=O)N(C)[C@H](C)C(=O)N[C@H](C(C)(C)C)C(=O)NCCCc2ccccc2O1 [Compound 1014]
≤ 500	–	CC[C@H](C)[C@@H]1NCCOc2ccccc2CCCNC(=O)[C@@H](Cc2ccccc2)NC(=O)[C@@H](CF)N(C)C1=O [Compound 954]
≤ 100	–	C[C@@H]1CN[C@@H](C2CC2)C(=O)N(C)[C@H](C)C(=O)N[C@H](Cc2ccc(Cl)cc2Cl)C(=O)NCCCc2ccccc2O1 [Compound 1039]
≤ 100	–	CC(=O)Oc1ccc(CC2NC(=O)C(C)N(C)C(=O)C(C3CC3)NCC(C)Oc3ccccc3CCCNC2=O)cc1F (mixture of isomers) [Compound 1065]
≤ 100	–	CC(C)CC1NC(=O)C(C)N(C)C(=O)C(C2CC2)NCCOc2cccc(F)c2CCCNC1=O (stereo not drawn) [Compound 1111]
≤ 100	–	CC(C)C[C@H]1NC(=O)[C@@H](C)N(C)C(=O)[C@H](C2CC2)NCCOc2ccccc2CC[C@@H](C)NC1=O [Compound 1086]
≤ 100	–	C[C@@H]1CN[C@@H](C2CC2)C(=O)N(C)[C@H](C)C(=O)N[C@H](Cc2cccc(O)c2)C(=O)NCCCc2ncccc2O1 [Compound 1079]
–	≤ 100	CCC(C)[C@@H]1NCC(C)(C)Oc2ccccc2CCCNC(=O)[C@@H](Cc2ccccc2)NC(=O)[C@@H](C)N(C)C1=O (stereo partly drawn) [Compound 923]
≤ 100	–	C[C@@H]1CN[C@@H](C2CC2)C(=O)N(C)[C@H](C)C(=O)N[C@H](C2CCCCC2)C(=O)NCCCc2ccccc2O1 [Compound 1046]
≤ 500	–	CC1CNC(C2CC2)C(=O)N(C)C(C)C(=O)NC(Cc2ccccc2O)C(=O)NCCCc2ccccc2O1 (mixture of isomers) [Compound 1101]

Ki [1] [nM]	Ki [nM]	SMILES
≤ 100	–	C[C@@H]1CN[C@@H](C2CC2)C(=O)N(C)[C@H](C)C(=O)N[C@H](Cc2ccccc2)C(=O)NCCCc2ccc(F)cc2O1 [Compound 876]
≤ 500	–	CC1CNC(C2CC2)C(=O)N(C)C(C)C(=O)NC(Cc2ccccc2O)C(=O)NCCCC2CCCCC2O1 (mixture of isomers) [Compound 1115]
≤ 100	–	CC[C@H](C)[C@@H]1NC[C@@H](C)Oc2c(F)cccc2CCCNC(=O)[C@@H](Cc2cccnc2)NC(=O)[C@@H](C)N(C)C1=O [Compound 974]
≤ 500	–	CC[C@H](C)[C@@H]1NCCOc2cnccc2CCCNC(=O)[C@@H](CC(C)C)NC(=O)[C@@H](C)N(C)C1=O [Compound 1022]
≤ 100	–	C[C@@H]1C(=O)N[C@H](Cc2ccc(O)cc2)C(=O)N[C@@H](C)CCc2ccccc2OCCN[C@@H](C2CC2)C(=O)N1C [Compound 1083]
> 500	–	CC(C)C[C@H]1NC(=O)[C@@H](C)N(C)C(=O)[C@H](C2CC2)NCCOc2cccnc2CCCNC1=O [Compound 986]
≤ 500	–	C[C@@H]1CN[C@@H](C2CC2)C(=O)N(C)[C@H](C)C(=O)N[C@H](Cc2ccncc2)C(=O)NCCCc2ccccc2O1 [Compound 977]
≤ 100	–	C[C@@H]1CN[C@@H](C2CC2)C(=O)N(C)[C@H](C)C(=O)N[C@H](Cc2ccc(Cl)cc2)C(=O)NCCCc2c(F)cccc2O1 [Compound 938]
≤ 100	–	C[C@H]1CNC(=O)[C@@H](Cc2ccc(F)cc2)NC(=O)[C@@H](C)N(C)C(=O)[C@H](C2CC2)NC[C@@H](C)Oc2ccccc2C1 [Compound 1005]
≤ 100	–	CC[C@H](C)[C@@H]1NC[C@@H](C)Oc2ccccc2CCCNC(=O)[C@@H](Cc2ccc(F)cc2)NC(=O)[C@@H](C)N(C)C1=O [Compound 855]
≤ 500	–	CO[C@H](C)[C@@H]1NC[C@@H](C)Oc2cccnc2CCCNC(=O)[C@@H](Cc2ccc(F)cc2)NC(=O)[C@@H](C)N(C)C1=O [Compound 1032]
≤ 100	–	C[C@@H]1CN[C@@H](C2CC2)C(=O)N(C)[C@H](C)C(=O)N[C@H]([C@@H](C)c2ccc(F)cc2)C(=O)NCCCc2ccccc2O1 [Compound 1034]
≤ 10	–	C[C@@H]1C(=O)N[C@H](Cc2ccc(Cl)cc2)C(=O)NCCCc2cccc3c2OC(CC3)CN[C@@H](C2CC2)C(=O)N1C (stereo partly drawn) [Compound 947]
≤ 100	–	CC[C@H](C)[C@@H]1NC[C@@H](C)Oc2ccccc2CCCNC(=O)[C@@H](Cc2ccc(Cl)cc2)NC(=O)[C@@H](C)N(C)C1=O [Compound 878]
≤ 100	–	COc1ccc(C[C@H]2NC(=O)[C@@H](C)N(C)C(=O)[C@H](C3CC3)NC[C@@H](C)Oc3ccccc3CCCNC2=O)cc1 [Compound 867]
≤ 1	–	CC1CNC(C2CC2)C(=O)N(C)C(C)C(=O)NC(Cc2ccc(F)cc2)C(=O)NCCCC2CCCCC2O1 (mixture of isomers) [Compound 1052]
≤ 500	–	CC(C)[C@@H]1NC[C@@H](C)Oc2ccccc2CCCNC(=O)[C@@H](Cc2ccc(F)cc2)NC(=O)[C@@H](C)N(C)C1=O [Compound 857]
≤ 100	–	C[C@@H]1C(=O)N[C@H](Cc2ccccc2)C(=O)NCCCc2ccc(F)cc2OCCN[C@@H](C2CC2)C(=O)N1C [Compound 865]
≤ 100	–	C[C@@H]1CN[C@@H](C2CC2)C(=O)N(C)[C@H](C)C(=O)N[C@H](Cc2ccc(F)cc2)C(=O)NCCCc2cccc(Cl)c2O1 [Compound 1007]
≤ 500	–	CCC[C@@H]1NC[C@H](C)Oc2ccccc2CCCNC(=O)[C@@H](Cc2ccccc2)NC(=O)[C@@H](C)N(C)C1=O [Compound 859]
≤ 100	–	C[C@@H]1CN[C@@H](C2CC2)C(=O)N(C)[C@H](C)C(=O)N[C@H](Cc2ccc(C(F)(F)F)cc2)C(=O)NCCCc2ccccc2O1 [Compound 1038]
≤ 500	–	C[C@@H]1CN[C@@H](C2CC2)C(=O)N(C)[C@H](C)C(=O)N[C@H](Cc2ccc(F)cc2)C(=O)NCCCc2c(F)cccc2O1 [Compound 937]
≤ 500	–	CC(C)C[C@H]1NC(=O)[C@@H](C)N(C)C(=O)[C@H](C2CC2)NC[C@@H]2CCc3cccc(c3O2)CCCNC1=O [Compound 1015]
> 500	–	C[C@@H]1CN[C@@H](C2CC2)C(=O)N(C)[C@H](C)C(=O)N[C@H](c2ccc(O)cc2)C(=O)NCCCc2ccccc2O1 [Compound 1103]

SMILES	Ki [1] [nM]	Ki [nM]
CC[C@H](C)[C@@H]1NCCOc2cccnc2CCCNC(=O)[C@@H](Cc2ccc(O)cc2)NC(=O)[C@@H](C)N(C)C1=O [Compound 992]	≤ 100	–
C[C@@H]1C(=O)N[C@H](Cc2ccc(O)cc2)C(=O)NCCCc2cccc3c2O[C@H](CC3)CN[C@@H](C2CCCCC2)C(=O)N1C [Compound 1105]	≤ 1	–
C[C@@H]1CN[C@@H](C2CC2)C(=O)N(C)[C@H](C)C(=O)N[C@H](Cc2ccc(O)cc2)C(=O)NCCCc2ncccc2O1 [Compound 1023]	≤ 100	–
C[C@@H]1C(=O)N[C@H](Cc2ccc(O)cc2)C(=O)NCCCc2nccc3c2O[C@H](CC3)CN[C@@H](C2CC2)C(=O)N1C [Compound 1074]	≤ 100	–
CC[C@H](C)[C@@H]1NC[C@@H](C)Oc2c(F)cccc2CCCNC(=O)[C@@H](Cc2ccc(O)cc2)NC(=O)[C@@H](C)N(C)C1=O [Compound 994]	≤ 100	–
C[C@@H]1CN[C@@H](C2CC2)C(=O)N(C)[C@H](C)C(=O)N[C@H](Cc2cc(Br)c(O)c(Br)c2)C(=O)NCCCc2ccccc2O1 [Compound 1053]	≤ 100	–
CC1CNC(C2CC2)C(=O)N(C)C(C)C(=O)NC(Cc2ccc(O)c(F)c2)C(=O)NCCCc2ccccc2O1 (mixture of isomers) [Compound 1049]	≤ 100	–
CC[C@H](C)[C@@H]1NC[C@@H](C)Oc2cccnc2CCCNC(=O)[C@@H](Cc2ccc(O)cc2)NC(=O)[C@@H](C)N(C)C1=O [Compound 1026]	≤ 100	–

From US10258602B2 (Ocera Therapeutics, Inc., priority 2007, dated 2019)
